# Data reported in publication PMC5218480 (PLoS ONE, 2017).
# System: MV-4-11 cells
# Assay: Gene expression microarray analysis (Affymetrix PrimeView) and GSEA
# Format: cell-based, human
# Set-up: RFU PODN (11730768_x_at) / Fold change /veh PODN (11730768_x_at) / RFU LINC00158 (11744669_a_at) / Fold change /veh LINC00158 (11744669_a_at) / RFU DUSP10 (11751237_a_at) / Fold change /veh DUSP10 (11751237_a_at) / RFU ID3 (11757404_x_at) / Fold change /veh ID3 (11757404_x_at) / RFU PLEKHG5 (11737974_s_at) / Fold change /veh PLEKHG5 (11737974_s_at) / RFU LRRC4B (11730491_at) / Fold change /veh LRRC4B (11730491_at) / RFU GIMAP4 (11747438_a_at) / Fold change /veh GIMAP4 (11747438_a_at) / RFU KRT8 (11758183_x_at) / Fold change /veh KRT8 (11758183_x_at) / RFU CNN1 (11734310_a_at) / Fold change /veh CNN1 (11734310_a_at) / RFU VPS37D (11726825_at) / Fold change /veh VPS37D (11726825_at) / RFU C10orf10 (11716522_x_at) / Fold change /veh C10orf10 (11716522_x_at) / RFU KIR2DL2 /// KIR2DL4 /// KIR2DL5A /// KIR2DL5B /// KIR2DS1 /// KIR2DS2 /// KIR2DS3 /// KIR2DS4 /// KIR3DL3 /// KIR3DL3 /// KIR3DS1 (11738374_at) / Fold change /veh KIR2DL2 /// KIR2DL4 /// KIR2DL5A /// KIR2DL5B /// KIR2DS1 /// KIR2DS2 /// KIR2DS3 /// KIR2DS4 /// KIR3DL3 /// KIR3DL3 /// KIR3DS1 (11738374_at) / RFU C1QL1 (11718748_at) / Fold change /veh C1QL1 (11718748_at) / RFU TMPRSS4 (11747572_a_at) / Fold change /veh TMPRSS4 (11747572_a_at) / RFU HAMP (11756126_x_at) / Fold change /veh HAMP (11756126_x_at) / RFU RNFT2 (11725882_a_at) / Fold change /veh RNFT2 (11725882_a_at) / RFU NR4A2 (11747474_a_at) / Fold change /veh NR4A2 (11747474_a_at) / RFU ABCC12 (11746883_a_at) / Fold change /veh ABCC12 (11746883_a_at) / RFU TMEM136 (11760407_x_at) / Fold change /veh TMEM136 (11760407_x_at) / RFU CLDN22 /// WWC2 (11732394_at) / Fold change /veh CLDN22 /// WWC2 (11732394_at) / RFU HLA-DPB1 (11760878_x_at) / Fold change /veh HLA-DPB1 (11760878_x_at) / RFU SPINT1 (11716480_a_at) / Fold change /veh SPINT1 (11716480_a_at) / RFU GAP43 (11754022_s_at) / Fold change /veh GAP43 (11754022_s_at) / RFU A4GNT (11735810_at) / Fold change /veh A4GNT (11735810_at) / RFU PRB3 (11715151_x_at) / Fold change /veh PRB3 (11715151_x_at) / RFU TUBB4B (11761932_at) / Fold change /veh TUBB4B (11761932_at) / RFU CAPN14 (11732068_a_at) / Fold change /veh CAPN14 (11732068_a_at) / RFU TMCC2 (11721928_a_at) / Fold change /veh TMCC2 (11721928_a_at) / RFU IRGQ (11745062_a_at) / Fold change /veh IRGQ (11745062_a_at) / RFU FAM174B (11720279_a_at) / Fold change /veh FAM174B (11720279_a_at) / RFU TMPRSS4 (11748680_a_at) / Fold change /veh TMPRSS4 (11748680_a_at) / RFU FAM212B (11763350_a_at) / Fold change /veh FAM212B (11763350_a_at) / RFU PLEKHG5 (11743358_a_at) / Fold change /veh PLEKHG5 (11743358_a_at) / RFU ZSCAN30 (11745921_a_at) / Fold change /veh ZSCAN30 (11745921_a_at) / RFU CMKLR1 (11741424_a_at) / Fold change /veh CMKLR1 (11741424_a_at) / RFU LOC101060620 /// MAPK8IP1 (11723275_at) / Fold change /veh LOC101060620 /// MAPK8IP1 (11723275_at) / RFU SPTSSB (11747773_x_at) / Fold change /veh SPTSSB (11747773_x_at) / RFU PRSS12 (11739890_at) / Fold change /veh PRSS12 (11739890_at) / RFU BIN1 (11741810_x_at) / Fold change /veh BIN1 (11741810_x_at) / RFU WNT11 (11732464_a_at) / Fold change /veh WNT11 (11732464_a_at) / RFU C10orf10 (11716521_a_at) / Fold change /veh C10orf10 (11716521_a_at) / RFU C5orf56 (11738089_at) / Fold change /veh C5orf56 (11738089_at) / RFU CYB561 (11721691_x_at) / Fold change /veh CYB561 (11721691_x_at) / RFU ANKRD19P (11752326_a_at) / Fold change /veh ANKRD19P (11752326_a_at) / RFU OR2T12 /// OR2T33 /// OR2T8 (11738714_s_at) / Fold change /veh OR2T12 /// OR2T33 /// OR2T8 (11738714_s_at) / RFU VCAN (11748164_a_at) / Fold change /veh VCAN (11748164_a_at) / RFU JSRP1 (11732532_at) / Fold change /veh JSRP1 (11732532_at) / RFU KRTAP10-11 (11738290_x_at) / Fold change /veh KRTAP10-11 (11738290_x_at) / RFU MYO3A (11730013_a_at) / Fold change /veh MYO3A (11730013_a_at) / RFU EBF3 (11725865_a_at) / Fold change /veh EBF3 (11725865_a_at) / RFU CAMK2N1 (11719241_x_at) / Fold change /veh CAMK2N1 (11719241_x_at) / RFU C5orf56 (11738088_a_at) / Fold change /veh C5orf56 (11738088_a_at) / RFU OLFML3 (11715873_a_at) / Fold change /veh OLFML3 (11715873_a_at) / RFU LOC100653217 /// NTM (11731650_a_at) / Fold change /veh LOC100653217 /// NTM (11731650_a_at) / RFU MAPK11 (11762145_a_at) / Fold change /veh MAPK11 (11762145_a_at) / RFU FIZ1 (11724087_x_at) / Fold change /veh FIZ1 (11724087_x_at) / RFU OASL (11726364_x_at) / Fold change /veh OASL (11726364_x_at) / RFU SOX15 (11748057_x_at) / Fold change /veh SOX15 (11748057_x_at) / RFU CD79A (11719716_a_at) / Fold change /veh CD79A (11719716_a_at) / RFU HIST1H1D (11736915_at) / Fold change /veh HIST1H1D (11736915_at) / RFU CASKIN2 (11723855_a_at) / Fold change /veh CASKIN2 (11723855_a_at) / RFU LOC730098 (11760151_x_at) / Fold change /veh LOC730098 (11760151_x_at) / RFU OR4N2 (11742367_at) / Fold change /veh OR4N2 (11742367_at) / RFU PRRT2 (11749266_a_at) / Fold change /veh PRRT2 (11749266_a_at) / RFU SNX32 (11753110_a_at) / Fold change /veh SNX32 (11753110_a_at) / RFU CDHR5 (11726645_a_at) / Fold change /veh CDHR5 (11726645_a_at) / RFU RCAN1 (11760418_a_at) / Fold change /veh RCAN1 (11760418_a_at) / RFU FAM167A (11723789_a_at) / Fold change /veh FAM167A (11723789_a_at) / RFU FAM26E (11764081_at) / Fold change /veh FAM26E (11764081_at) / RFU ISYNA1 (11749810_s_at) / Fold change /veh ISYNA1 (11749810_s_at) / RFU ACY1 (11761880_at) / Fold change /veh ACY1 (11761880_at) / RFU 11764098_at / Fold change /veh 11764098_at / RFU SAMD14 (11745864_x_at) / Fold change /veh SAMD14 (11745864_x_at) / RFU NPB (11741838_a_at) / Fold change /veh NPB (11741838_a_at) / RFU TMPRSS6 (11731388_a_at) / Fold change /veh TMPRSS6 (11731388_a_at) / RFU KRTAP10-2 (11738614_at) / Fold change /veh KRTAP10-2 (11738614_at) / RFU ARHGAP8 /// PRR5-ARHGAP8 (11727945_x_at) / Fold change /veh ARHGAP8 /// PRR5-ARHGAP8 (11727945_x_at) / RFU KRTAP5-7 /// NADSYN1 (11734609_at) / Fold change /veh KRTAP5-7 /// NADSYN1 (11734609_at) / RFU RASL12 (11751679_a_at) / Fold change /veh RASL12 (11751679_a_at) / RFU CDKN2B (11736163_a_at) / Fold change /veh CDKN2B (11736163_a_at) / RFU PRF1 (11729649_at) / Fold change /veh PRF1 (11729649_at) / RFU, ZNF638 /// ZNF638-IT1 / Fold change vs veh, ZNF638 /// ZNF638-IT1 / RFU, PANK3 / Fold change vs veh, PANK3 / RFU, SH3YL1 / Fold change vs veh, SH3YL1 / RFU, ZEB2 / Fold change vs veh, ZEB2 / RFU, NRIP1 / Fold change vs veh, NRIP1 / RFU, PTTG1IP / Fold change vs veh, PTTG1IP / RFU, CAPN2 / Fold change vs veh, CAPN2 / RFU, MED14 / Fold change vs veh, MED14 / RFU, SNORA58 / Fold change vs veh, SNORA58 / RFU, C1orf63 / Fold change vs veh, C1orf63 / RFU, LRRFIP1 / Fold change vs veh, LRRFIP1 / RFU, NDUFAF7 / Fold change vs veh, NDUFAF7 / RFU, SLC12A2 / Fold change vs veh, SLC12A2 / RFU, IBTK / Fold change vs veh, IBTK / RFU, ESF1 / Fold change vs veh, ESF1 / Fold change vs veh, TMEM50B / RFU, TAOK1 / Fold change vs veh, TAOK1 / RFU, ACBD3 / Fold change vs veh, ACBD3 / RFU, TMA16 / Fold change vs veh, TMA16 / RFU, RWDD3 / Fold change vs veh, RWDD3 / RFU, BCAT1 / Fold change vs veh, BCAT1 / RFU, EDEM3 / Fold change vs veh, EDEM3 / RFU, TMEM33 / Fold change vs veh, TMEM33 / RFU, WDR75 / Fold change vs veh, WDR75 / RFU, AHCTF1 / Fold change vs veh, AHCTF1 / RFU, TFRC / Fold change vs veh, TFRC / RFU, ZDHHC17 / Fold change vs veh, ZDHHC17 / RFU, NOM1 / Fold change vs veh, NOM1 / RFU, ARL8B / Fold change vs veh, ARL8B / RFU, ZBTB11 / Fold change vs veh, ZBTB11 / RFU, TAMM41 / Fold change vs veh, TAMM41 / RFU, KIAA1704 /// LOC100996395 / Fold change vs veh, KIAA1704 /// LOC100996395 / RFU, ING1 / Fold change vs veh, ING1 / RFU, TRMT61B / Fold change vs veh, TRMT61B / RFU, FUBP3 / Fold change vs veh, FUBP3 / RFU, TP53 / Fold change vs veh, TP53 / RFU, TNKS2 / Fold change vs veh, TNKS2 / RFU, ZFP14 / Fold change vs veh, ZFP14 / RFU, ACTR2 / Fold change vs veh, ACTR2 / RFU, PPP3R1 / Fold change vs veh, PPP3R1 / RFU, PIK3R1 / Fold change vs veh, PIK3R1 / RFU, HNRNPA1 / Fold change vs veh, HNRNPA1 / RFU, RNF170 / Fold change vs veh, RNF170 / RFU, ZNF28 / Fold change vs veh, ZNF28 / RFU, RNGTT / Fold change vs veh, RNGTT / RFU, OGT / Fold change vs veh, OGT / RFU, BRD1 / Fold change vs veh, BRD1 / RFU, MARS / Fold change vs veh, MARS / RFU, ZNF655 / Fold change vs veh, ZNF655 / RFU, FAHD1 / Fold change vs veh, FAHD1 / RFU, BDP1 / Fold change vs veh, BDP1 / RFU, LRRCC1 / Fold change vs veh, LRRCC1 / RFU, ARID1A / Fold change vs veh, ARID1A / RFU, ZNF146 / Fold change vs veh, ZNF146 / RFU, ZNF330 / Fold change vs veh, ZNF330 / RFU, GPN3 / Fold change vs veh, GPN3 / RFU, C9orf123 / Fold change vs veh, C9orf123 / RFU, N4BP2L2 / Fold change vs veh, N4BP2L2 / RFU, ARFIP1 / Fold change vs veh, ARFIP1 / RFU, FAM179B / Fold change vs veh, FAM179B / RFU, BCL10 / Fold change vs veh, BCL10 / RFU, UHRF1BP1L / Fold change vs veh, UHRF1BP1L / RFU, BET1 / Fold change vs veh, BET1 / RFU, CNOT2 / Fold change vs veh, CNOT2 / RFU, ZNF268 / Fold change vs veh, ZNF268 / Fold change vs veh, ZNF507 / RFU, DGCR2 / Fold change vs veh, DGCR2 / RFU, WDSUB1 / Fold change vs veh, WDSUB1 / Fold change vs veh, HSP90B1 /// MIR3652 / RFU, ADSS / Fold change vs veh, ADSS / RFU, GK / Fold change vs veh, GK / RFU, ZNF148 / Fold change vs veh, ZNF148 / RFU, TAF9 / Fold change vs veh, TAF9 / RFU, SLC1A5 / Fold change vs veh, SLC1A5 / RFU, SLMO2 / Fold change vs veh, SLMO2 / RFU, ABCC4 / Fold change vs veh, ABCC4 / RFU, LOC101060439 /// RAP1B / Fold change vs veh, LOC101060439 /// RAP1B / RFU, RFX7 / Fold change vs veh, RFX7 / RFU, GTPBP10 / Fold change vs veh, GTPBP10 / RFU, CNEP1R1 / Fold change vs veh, CNEP1R1 / RFU, BIVM-ERCC5 /// ERCC5 / Fold change vs veh, BIVM-ERCC5 /// ERCC5 / RFU, ILF3 / Fold change vs veh, ILF3 / RFU 11762660_at / Fold change /veh 11762660_at / RFU VCAN (11757783_s_at) / Fold change /veh VCAN (11757783_s_at) / RFU DDX43 (11728927_at) / Fold change /veh DDX43 (11728927_at) / RFU KRT8 (11758188_x_at) / Fold change /veh KRT8 (11758188_x_at) / RFU NKD1 (11759106_at) / Fold change /veh NKD1 (11759106_at) / RFU SRD5A1 (11742802_a_at) / Fold change /veh SRD5A1 (11742802_a_at) / RFU TPSAB1 /// TPSB2 (11721975_s_at) / Fold change /veh TPSAB1 /// TPSB2 (11721975_s_at) / RFU GSTM3 (11746129_a_at) / Fold change /veh GSTM3 (11746129_a_at) / RFU IL23R (11737362_x_at) / Fold change /veh IL23R (11737362_x_at) / RFU TMEM51 (11727254_a_at) / Fold change /veh TMEM51 (11727254_a_at) / RFU PIWIL2 (11732686_x_at) / Fold change /veh PIWIL2 (11732686_x_at) / RFU ORM1 (11744905_x_at) / Fold change /veh ORM1 (11744905_x_at) / RFU CCDC152 (11743942_at) / Fold change /veh CCDC152 (11743942_at) / RFU ECM1 (11717891_a_at) / Fold change /veh ECM1 (11717891_a_at) / RFU IL23R (11748794_a_at) / Fold change /veh IL23R (11748794_a_at) / RFU TNFAIP8L3 (11732012_x_at) / Fold change /veh TNFAIP8L3 (11732012_x_at) / RFU MBOAT4 (11741988_at) / Fold change /veh MBOAT4 (11741988_at) / RFU 11764193_at / Fold change /veh 11764193_at / RFU TMEM53 (11763286_at) / Fold change /veh TMEM53 (11763286_at) / RFU MAGEB2 (11727129_at) / Fold change /veh MAGEB2 (11727129_at) / RFU TMEM200A (11744735_a_at) / Fold change /veh TMEM200A (11744735_a_at) / RFU CCDC152 (11751479_a_at) / Fold change /veh CCDC152 (11751479_a_at) / RFU FAM211A (11726209_a_at) / Fold change /veh FAM211A (11726209_a_at) / RFU RGS16 (11746705_a_at) / Fold change /veh RGS16 (11746705_a_at) / RFU VCAN (11755009_s_at) / Fold change /veh VCAN (11755009_s_at) / RFU RHOB (11743442_s_at) / Fold change /veh RHOB (11743442_s_at) / RFU RGS16 (11720943_a_at) / Fold change /veh RGS16 (11720943_a_at) / RFU RGS16 (11720944_at) / Fold change /veh RGS16 (11720944_at) / RFU, VPS4B / Fold change vs veh, VPS4B / RFU, CREB1 / Fold change vs veh, CREB1 / RFU, DNAJC13 / Fold change vs veh, DNAJC13 / RFU, GNAQ / Fold change vs veh, GNAQ / RFU, CDK5R1 / Fold change vs veh, CDK5R1 / RFU, ZRANB3 / Fold change vs veh, ZRANB3 / RFU, CUL4A / Fold change vs veh, CUL4A / RFU, CCNY / Fold change vs veh, CCNY / RFU, UFL1 / Fold change vs veh, UFL1 / RFU, COG3 / Fold change vs veh, COG3 / RFU, DIAPH2 / Fold change vs veh, DIAPH2 / RFU, SKA2 / Fold change vs veh, SKA2 / RFU, AFF3 / Fold change vs veh, AFF3 / RFU, LMF1 / Fold change vs veh, LMF1 / RFU, IPO11 / Fold change vs veh, IPO11 / RFU, DFFB / Fold change vs veh, DFFB / RFU, FOXP1 / Fold change vs veh, FOXP1 / RFU, CARD8 / Fold change vs veh, CARD8 / RFU, STRN3 / Fold change vs veh, STRN3 / RFU, ADK / Fold change vs veh, ADK / RFU, RASSF2 / Fold change vs veh, RASSF2 / RFU, WIPF1 / Fold change vs veh, WIPF1 / RFU, LARP1B / Fold change vs veh, LARP1B / RFU, RASA1 / Fold change vs veh, RASA1 / RFU, RB1 / Fold change vs veh, RB1 / RFU, PPFIA1 / Fold change vs veh, PPFIA1 / RFU, MAT2A / Fold change vs veh, MAT2A / RFU, CCT5 / Fold change vs veh, CCT5 / RFU, WDR92 / Fold change vs veh, WDR92 / RFU, CUX1 / Fold change vs veh, CUX1 / RFU, TTC7A / Fold change vs veh, TTC7A / RFU, TMEM135 / Fold change vs veh, TMEM135 / RFU, DEPTOR / Fold change vs veh, DEPTOR / RFU, CPM / Fold change vs veh, CPM / RFU, DNAJB6 / Fold change vs veh, DNAJB6 / RFU, CACNA2D3 / Fold change vs veh, CACNA2D3 / RFU, DTX4 / Fold change vs veh, DTX4 / RFU, TFCP2 / Fold change vs veh, TFCP2 / RFU, GMCL1 /// GMCL1P1 / Fold change vs veh, GMCL1 /// GMCL1P1 / RFU, AEBP2 / Fold change vs veh, AEBP2 / RFU, SNHG1 /// SNORD22 /// SNORD25 /// SNORD26 /// SNORD27 /// SNORD28 /// SNORD29 /// SNORD31 / Fold change vs veh, SNHG1 /// SNORD22 /// SNORD25 /// SNORD26 /// SNORD27 /// SNORD28 /// SNORD29 /// SNORD31 / Fold change (Aza/veh), C12orf56 (ProbeSet 11735607_a_at) / Fold change (ACY-1035/veh), C12orf56 (ProbeSet 11735607_a_at) / Fold change (Aza/veh), FGFR1OP (ProbeSet 11751329_s_at) / Fold change (ACY-1035/veh), FGFR1OP (ProbeSet 11751329_s_at) / Fold change (Aza/veh), VPS36 (ProbeSet 11739960_a_at) / Fold change (ACY-1035/veh), VPS36 (ProbeSet 11739960_a_at) / RFU SYPL1 (11715823_x_at) / Fold change /veh SYPL1 (11715823_x_at) / RFU IGFBP7 (11715501_s_at) / Fold change /veh IGFBP7 (11715501_s_at) / RFU REEP3 (11722064_at) / Fold change /veh REEP3 (11722064_at) / RFU IGLL1 (11728026_x_at) / Fold change /veh IGLL1 (11728026_x_at): dose or concentration left out as unconfirmed
# Settings: MV-4-11 cells, 48 hours
smiles,measurement,value
Nc1ncn([C@@H]2O[C@H](CO)[C@@H](O)[C@H]2O)c(=O)n1 [azacitidine],Fold change /veh KRTAP5-7 /// NADSYN1 (11734609_at),1.00
